Measured values taken from patent US10954305B2 (Immunomedics, Inc., priority 2016, dated 2021).

What was measured:
NCI-N87-S120 = experiment: in vitro cytotoxicity, MTS (Table 14); assay type: cell-based, human; conditions: for IC50: NCI-N87-S120, YHO-13351 2 μM, Ko143 1 μM where added; for RF (resistance factor): IC50 mean of NCI-N87-S120 / NCI-N87
Method: (§1) Each cell line was maintained according to the recommendations of ATCC and routinely tested for mycoplasma using MYCOALERT™ mycoplasma detection kits (Lonza). The two SN-38-resistant cell lines, MDA-MB-231-5120 and NCI-N87-S120, were established by continuous exposure of the parental cells to stepwise increased concentrations of SN-38 from 6 pM to 120 nM over a period of approximately 2 years. In addition, a revertant cell line (NCI-N87-S120-REV) was obtained after culturing NCI-N87-S120 in SN-38-free medium for 4 months. The S-120 clones were maintained in medium containing 120 nM of SN-38, but cultured in drug-free medium for 7 to 14 days prior to any experiment. All cells were grown at 37° C. as monolayer cultures in a humidified atmosphere of 5% CO2.
(§2) In Vitro cytotoxicity. […] Briefly, cells were placed into wells of 96-well plates. […] From these working solutions, serial 5-fold dilutions were made in sterile media to yield final concentrations between 500 and 0.0064 nM in test wells. […] Cytotoxicity was measured as a percent of growth relative to untreated cells. Dose-response curves were generated from the mean of triplicate determinations, and IC50 values were calculated using GraphPad Prism Software V 6.05 (Advanced Graphics Software).
(§3) The effect of ABCG2 inhibitors on the IC50 values of SN-38 for the parental and resistant cell lines was determined from the respective dose-response curves obtained for SN-38 in the presence of a non-toxic concentration of ABCG2 inhibitors.

[1] = Weidner et al., 2015; cited from earlier work
MDA-MB-231-S120 = experiment: in vitro cytotoxicity, MTS (Table 14); assay type: cell-based, human; conditions: for IC50: MDA-MB-231-S120, YHO-13351 2 μM where added; for RF (resistance factor): IC50 mean of MDA-MB-231-S120 / MDA-MB-231
Method: as §1, §2, §3

MDA-MB-231 [2] = experiment: in vitro cytotoxicity, MTS (Table 14); assay type: cell-based, human; conditions: YHO-13351 2 μM where added
Method: as §1, §2, §3

NCI-N87 [3] = experiment: in vitro cytotoxicity, MTS (Table 14); assay type: cell-based; conditions: Homo sapiens, YHO-13351 2 μM, Ko143 1 μM where added
Method: as §1
In Vitro cytotoxicity. […] Briefly, cells were placed into wells of 96-well plates. […] Cytotoxicity was measured as a percent of growth relative to untreated cells. Dose-response curves were generated from the mean of triplicate determinations, and IC50 values were calculated using GraphPad Prism Software V 6.05 (Advanced Graphics Software).
as §3

sublines of HeLa = conditions: Takara et al., 2009; cited from earlier work
sublines of PC-6 = conditions: Kawabata et al., 2001; cited from earlier work
subline of H23 = conditions: Bessho et al., 2006; cited from earlier work
NCI-N87 [4] = experiment: double-strand breaks, γH2AX; assay type: cell-based, human; conditions: 250 nM, after 3 h
Method: (§4) Cells (5×10^5 cells/mL per sample) were incubated with or without SN-38 (250 nM) at 37° C. for the indicated times, fixed in 4% formalin for 15 min, then washed and permeabilized in 0.15% TRITON™ X-100 in PBS for 15 min. After washing twice with 1% bovine serum albumin-PBS, the cells were incubated with murine anti-γH2AX-AF488 for 45 min at 4° C. The signal intensity of γH2AX was measured by flow cytometry using a FACSCALIBUR™ (BD Biosciences).

MDA-MB-231 [5] = experiment: double-strand breaks, γH2AX; assay type: cell-based, human; conditions: 250 nM, after 3 h
Method: as §4

p21^Waf1/Cip1 in BxPC-3 = experiment: p21Waf1/Cip1 expression; assay type: cell-based, human
Source text: SN-38 is known to activate several signaling pathways in cells, leading to apoptosis (e.g., Cusack et al., 2001, Cancer Res 61:3535-40; Liu et al. 2009, Cancer Lett 274:47-53; Lagadec et al., 2008, Br J Cancer 98:335-44). Our initial studies examined the expression of 2 proteins involved in early signaling events (p21^Waf1/Cip1 and p53) and 1 late apoptotic event [cleavage of poly-ADP-ribose polymerase (PARP)] in vitro (not shown).

p53 in BxPC-3 and Calu-3 = experiment: p53 expression; assay type: cell-based, human
Method: In addition, p53 expression in cells exposed to the ADC was higher in both cell lines compared to SN-38 (not shown). […] In terms of later apoptotic events, cleavage of PARP was evident in both cell lines when incubated with either SN-38 or the conjugate (not shown). […] The higher degree of cleavage with free SN-38 over the ADC was consistent with the cytotoxicity findings.

NCI-N87-S120-REV = experiment: in vitro cytotoxicity, MTS; assay type: cell-based, human; conditions: revertant after 4 months in SN-38-free medium
Method: as §1, §2

[6] = system: p21^WAF1/Cip1 in MDA-MB-468; experiment: immunoblotting of apoptotic pathway; assay type: cell-based, human; conditions: by 48 h
Method: Cells (2×10^6) were plated in 6-well plates overnight. […] Parental hRS7 was used as a control for the ADC.

Q: For `COc1ccc2c3c([nH]c2c1)[C@H](CC(C)C)N1C(=O)[C@H](CCC(=O)OC(C)(C)C)NC(=O)[C@@H]1C3` [Ko143], which “effect on SN-38 toxicity in S-120 cells” value (NCI-N87-S120; both S-120 cells, in vitro) is on record?
A: Its value is “restored toxicity of SN-38”.

Q: What about the “stability in rat serum” value [1] of the same molecule?
A: Its value is “instability”.

Q: For `COc1cccc2c1C(=O)c1c(O)c3c(c(O)c1C2=O)C[C@@](O)(C(=O)CO)C[C@@H]3O[C@H]1C[C@H](N)[C@H](O)[C@H](C)O1` [Doxorubicin], which IC50 (MDA-MB-231-S120; Homo sapiens) is on record?
A: Its IC50 is 43.1 ± 4.6 nM.

Q: And the “RF (resistance factor)” value (MDA-MB-231-S120)?
A: The value was 4.0.

Q: What about the IC50 (MDA-MB-231 [2]; Homo sapiens) of the same molecule?
A: The IC50 was 10.9 ± 0.6 nM.

Q: What about the IC50 (NCI-N87-S120; Homo sapiens) of the same molecule?
A: The IC50 was 74.6 ± 3.3 nM.

Q: And the “RF (resistance factor)” value (NCI-N87-S120)?
A: The value was 2.3.

Q: And the IC50 (NCI-N87 [3])?
A: The IC50 was 32.2 ± 7.5 nM.

Q: And the resistance ratio (sublines of HeLa)?
A: The resistance ratio was 2.5.

Q: And the resistance ratio (sublines of PC-6)?
A: The resistance ratio was “less than 1.3”.

Q: What about the resistance ratio (subline of H23) of the same molecule?
A: Its resistance ratio is “about 7.0”.

Q: For `CCc1c2c(nc3ccc(O)cc13)-c1cc3c(c(=O)n1C2)COC(=O)[C@]3(O)CC` [SN-38, 7-ethyl-10-hydroxycamptothecin], which “increase of γH2AX over untreated controls” value (NCI-N87 [4]) is on record?
A: Its value is “about 4 fold”.

Q: What about the “increase of γH2AX over untreated controls” value (MDA-MB-231 [5]) of the same molecule?
A: Its value is “about 2 fold”.

Q: And the “RF (resistance factor)” value (MDA-MB-231-S120)?
A: Its value is 51.7.

Q: And the IC50 (MDA-MB-231-S120)?
A: The IC50 was 248 ± 79 nM.

Q: And the IC50 (MDA-MB-231 [2])?
A: Its IC50 is 4.8 ± 1.7 nM.

Q: What about the “RF (resistance factor)” value (NCI-N87-S120) of the same molecule?
A: The value was 49.1.

Q: What about the IC50 (NCI-N87-S120) of the same molecule?
A: Its IC50 is 211 ± 39 nM.

Q: What about the “resistance of S-120 cells vs parental cells” value (NCI-N87-S120; both S-120 cells) of the same molecule?
A: The value was “about 50 fold”.

Q: And the “increase in p21^Waf1/Cip1 expression” value (p21^Waf1/Cip1 in BxPC-3)?
A: Its value is 20 fold.

Q: What about the “time to upregulation of p53” value (p53 in BxPC-3 and Calu-3) of the same molecule?
A: The value was 48 h.

Q: What about the IC50 (NCI-N87-S120-REV) of the same molecule?
A: The IC50 was 50 nM.

Q: What about the “decrease of p21^WAF1/Cip1” value [6] of the same molecule?
A: The value was 31%.
